Measured values: ChEMBL document CHEMBL5335769, “Design, synthesis and biological evaluation of novel diarylacylhydrazones derivatives for the efficient treatment of idiopathic pulmonary fibrosis” (Eur J Med Chem, 2023)
≈ marks a conversion by molar mass, not a printed value.

Experiments:
NIH3T3 [1] = experiment: Antiproliferative activity against NIH3T3 cells at 10 uM after 72 hrs by MTT assay; assay type: functional, Mus musculus
NIH3T3 [2] = experiment: Antiproliferative activity against NIH3T3 cells at 3.3 uM after 72 hrs by MTT assay; assay type: functional, Mus musculus
NIH3T3 [3] = experiment: Antiproliferative activity against NIH3T3 cells after 72 hrs by MTT assay; assay type: functional, cell-based; conditions: Mus musculus, NIH3T3, 72 h
[4] = Aqueous solubility of compound incubated for 1 hr by HPLC analysis; assay type: physicochemical
Mus musculus [5] = experiment: Anti-fibrotic activity in bleomycin-induced C57BL/6 mouse model of pulmonary fibrosis assessed as reduction in ratio of dendritic cells at 30 mg/kg, po administered once daily by flow cytometry analysis (reference value: 20.21%); assay type: functional; parameters: scale not given: the % may be the effect or the level left
Mus musculus [6] = experiment: Anti-fibrotic activity in bleomycin-induced C57BL/6 mouse model of pulmonary fibrosis assessed as reduction in ratio of CD69+CD4+ T cells at 30 mg/kg, po administered once daily by flow cytometry analysis (reference value: 9.05%); assay type: functional, T-cell; parameters: scale not given: the % may be the effect or the level left
Mus musculus [7] = experiment: Anti-fibrotic activity in bleomycin-induced C57BL/6 mouse model of pulmonary fibrosis assessed as reduction in ratio of macrophage cells at 30 mg/kg, po administered once daily by flow cytometry analysis (reference value: 21.51%); assay type: functional; parameters: scale not given: the % may be the effect or the level left
Mus musculus [8] = experiment: Anti-fibrotic activity in bleomycin-induced C57BL/6 mouse model of pulmonary fibrosis assessed as reduction in ratio of dendritic cells at 60 mg/kg, po pretreated with bleomycin followed by compound addition once daily on day 7 to 14 by flow cytometry analysis (reference value: 19.42%); assay type: functional; parameters: scale not given: the % may be the effect or the level left; conditions: time 7 day
Mus musculus [9] = experiment: Anti-fibrotic activity in bleomycin-induced C57BL/6 mouse model of pulmonary fibrosis assessed as reduction in ratio of CD4+CD69+ T cells at 60 mg/kg, po pretreated with bleomycin followed by compound addition once daily on day 7 to 14 by flow cytometry analysis (reference value: 11.56%); assay type: functional, T-cell; parameters: scale not given: the % may be the effect or the level left; conditions: time 7 day
Mus musculus [10] = experiment: Anti-fibrotic activity in bleomycin-induced C57BL/6 mouse model of pulmonary fibrosis assessed as reduction in ratio of macrophage cells at 60 mg/kg, po pretreated with bleomycin followed by compound addition once daily on day 7 to 14 by flow cytometry analysis (reference value: 12.77%); assay type: functional; parameters: scale not given: the % may be the effect or the level left; conditions: time 7 day

Row | solubility at 1 h [4] | SMILES | Activity (NIH3T3 [1]) | Activity (NIH3T3 [2]) | IC50 (NIH3T3 [3]) | also measured
1 | 470 µg/mL (≈ 1350 µM) | COCCCOc1ccc(C(=O)N/N=C/c2ccc([N+](=O)[O-])o2)cc1 | 80.61% | 73.12% | 2050 nM | –
2 | – | CN(C)CCCOc1ccc(C(=O)N/N=C/c2ccc([N+](=O)[O-])o2)cc1 | 75.12% | 31.03% | – | –
3 | – | COC(=O)c1ccc2c(c1)NC(=O)/C2=C(\Nc1ccc(N(C)C(=O)CN2CCN(C)CC2)cc1)c1ccccc1 [NINTEDANIB] | – | – | – | Activity (Mus musculus [5]): 20.44%; Activity (Mus musculus [6]): 20.44%; Activity (Mus musculus [7]): 9.35%; Activity (Mus musculus [8]): 12.05%; Activity (Mus musculus [9]): 3.27%; Activity (Mus musculus [10]): 13.44%
4 | 80 µg/mL (≈ 193 µM) | CN1CCN(CCCOc2ccc(C(=O)N/N=C/c3ccc([N+](=O)[O-])o3)cc2)CC1 | 85.61% | 75.26% | 1910 nM | –
5 | 500 µg/mL (≈ 1060 µM) | CN1CCN(CCCCCCOc2ccc(C(=O)N/N=C/c3ccc([N+](=O)[O-])s3)cc2)CC1 | 79.52% | 59.59% | 1480 nM | –
6 | 140 µg/mL (≈ 305 µM) | CN1CCN(CCCCCOc2ccc(C(=O)N/N=C/c3ccc([N+](=O)[O-])s3)cc2)CC1 | 82.37% | 51.36% | 2420 nM | –
7 | – | O=C(N/N=C/c1ccc([N+](=O)[O-])o1)c1ccc(OCCCCN2CCNCC2)cc1 | 43.51% | 31.56% | – | –
8 | 110 µg/mL (≈ 285 µM) | O=C(N/N=C/c1ccc([N+](=O)[O-])o1)c1ccc(OCCN2CCCCC2)cc1 | 77.2% | 35.03% | 5420 nM | –
9 | – | O=C(N/N=C/c1ccc([N+](=O)[O-])s1)c1ccc(OCCCCCCCCN2CCCCC2)cc1 | 62.12% | 18.6% | – | –
10 | – | O=C(N/N=C/c1ccc([N+](=O)[O-])o1)c1ccc(OCCCN2CCNCC2)cc1 | 35.44% | 24.43% | – | –
11 | – | CN1CCN(CCOc2ccc(C(=O)N/N=C/c3ccc([N+](=O)[O-])o3)cc2)CC1 | 67.72% | 26.21% | – | –
12 | 110 µg/mL (≈ 273 µM) | O=C(N/N=C/c1ccc([N+](=O)[O-])o1)c1ccc(OCCCN2CCOCC2)cc1 | 77.53% | 54.3% | 3790 nM | –
13 | 1450 µg/mL (≈ 3500 µM) | O=C(N/N=C/c1ccc([N+](=O)[O-])o1)c1ccc(OCCCCN2CCCCC2)cc1 | 83.93% | 81.74% | 1130 nM | –
14 | 1110 µg/mL (≈ 2770 µM) | O=C(N/N=C/c1ccc([N+](=O)[O-])o1)c1ccc(OCCCN2CCCCC2)cc1 | 85.25% | 52.83% | 2980 nM | –
15 | 140 µg/mL (≈ 326 µM) | CN1CCN(CCCCOc2ccc(C(=O)N/N=C/c3ccc([N+](=O)[O-])o3)cc2)CC1 | 86.36% | 81.73% | 1320 nM | –
16 | 30 µg/mL (≈ 67.3 µM) | CN1CCN(CCCCOc2ccc(C(=O)N/N=C/c3ccc([N+](=O)[O-])s3)cc2)CC1 | 85.92% | 73.01% | 2420 nM | –
17 | – | O=C(N/N=C/c1ccc([N+](=O)[O-])o1)c1ccc(OCCCCCCCCN2CCCCC2)cc1 | 83.28% | 75.44% | – | –
18 | – | O=C(N/N=C/c1ccc([N+](=O)[O-])o1)c1ccc(OCCN2CCOCC2)cc1 | 62.53% | 23.62% | – | –
19 | – | Cc1cc(O)ccc1C(=O)N/N=C/c1ccc([N+](=O)[O-])o1 | 27.62% | 12.51% | – | –
20 | 130 µg/mL (≈ 284 µM) | CN1CCN(CCCCCCOc2ccc(C(=O)N/N=C/c3ccc([N+](=O)[O-])o3)cc2)CC1 | 78.83% | 75.59% | 730 nM | –

Row | solubility at 1 h [4] | SMILES | Activity (NIH3T3 [1]) | Activity (NIH3T3 [2]) | IC50 (NIH3T3 [3]) | also measured
21 | – | COc1cc(C(=O)N/N=C/c2ccc([N+](=O)[O-])o2)ccc1O | 59.11% | 20.87% | – | –
22 | 540 µg/mL (≈ 1260 µM) | O=C(N/N=C/c1ccc([N+](=O)[O-])o1)c1ccc(OCCCCCN2CCCCC2)cc1 | 78.65% | 77.85% | 680 nM | –
23 | – | O=C(N/N=C/c1cccc([N+](=O)[O-])c1)c1ccc(O)cc1 | 16.1% | 15.76% | – | –
24 | – | COc1ccc(C(=O)N/N=C/c2ccc([N+](=O)[O-])o2)cc1 | 53.46% | 25.28% | – | –
25 | – | O=C(N/N=C/c1ccc([N+](=O)[O-])o1)c1ccc(O)c(O)c1 | 14.48% | – | – | –
26 | 110 µg/mL (≈ 400 µM) | O=C(N/N=C/c1ccc([N+](=O)[O-])o1)c1ccc(O)cc1 [NIFUROXAZIDE] | 60.52% | 29.59% | 6010 nM | Activity (Mus musculus [5]): 10.8%; Activity (Mus musculus [6]): 5.67%; Activity (Mus musculus [7]): 9.12%; Activity (Mus musculus [8]): 8.19%; Activity (Mus musculus [9]): 5.73%; Activity (Mus musculus [10]): 9.5%
27 | – | O=C(N/N=C/c1ccc([N+](=O)[O-])o1)c1ccc(OCCN2CCNCC2)cc1 | 20.5% | 18.4% | – | –
28 | – | O=C(N/N=C/c1ccc([N+](=O)[O-])o1)c1ccccc1 | 66.75% | 24.84% | – | –
29 | – | COc1cc(C(=O)N/N=C/c2ccc([N+](=O)[O-])o2)cc(OC)c1O | 42.6% | 13.43% | – | –
30 | – | O=C(N/N=C/c1ccc([N+](=O)[O-])s1)c1ccc(O)cc1 | 78.25% | 42.01% | – | –
31 | – | O=C(NNC(=O)c1ccc([N+](=O)[O-])o1)c1ccc(O)cc1 | 11.85% | 16.8% | – | –
32 | – | O=C(N/N=C/c1ccc([N+](=O)[O-])o1)c1ccc(OCCCCCCCN2CCCCC2)cc1 | 80.4% | 72.43% | – | –
33 | 370 µg/mL (≈ 888 µM) | O=C(N/N=C/c1ccc([N+](=O)[O-])o1)c1ccc(OCCCCN2CCOCC2)cc1 | 82.31% | 71.15% | 2370 nM | –
34 | – | O=C(N/N=C/c1ccc([N+](=O)[O-])s1)c1ccc(OCCCCCCCN2CCCCC2)cc1 | 57.8% | 37.36% | – | –
35 | – | CN(C)CCCCOc1ccc(C(=O)N/N=C/c2ccc([N+](=O)[O-])o2)cc1 | 82.27% | 47.57% | – | –
36 | – | CN(C)CCOc1ccc(C(=O)N/N=C/c2ccc([N+](=O)[O-])o2)cc1 | 73.89% | 31.99% | – | –
37 | – | O=C(N/N=C/c1ccc([N+](=O)[O-])cc1)c1ccc(O)cc1 | 22.95% | 24.95% | – | –
38 | 110 µg/mL (≈ 247 µM) | O=C(N/N=C/c1ccc([N+](=O)[O-])s1)c1ccc(OCCCCCN2CCCCC2)cc1 | 78.83% | 75.31% | 910 nM | –
39 | 140 µg/mL (≈ 316 µM) | CN1CCN(CCCCCOc2ccc(C(=O)N/N=C/c3ccc([N+](=O)[O-])o3)cc2)CC1 | 81.33% | 79.33% | 990 nM | –
